Measured values as given in patent US9381148B2, “Composition comprising particulate zinc material with a high relative zinc lability” (priority 2003, dated 2016).
Like-named read-outs stand apart in the source and are kept apart here.

Columns and labels:
[1] = zinc salt of the counterion; reference A, selected literature data for 25–30° C.; cited from earlier work
[2] = Text: Those materials with high potential to bind to the PZM surface are ZBM's that form only sparingly soluble salts with zinc in water. “Sparingly soluble” refers to zinc salts with 1 gram(g)/100 g water solubility or less. These are the materials that form precipitated surface species on the PZM that interfere with zinc lability. A summary of the solubilities of common zinc salts is shown below: […]

Molecule	Solubility (g/100 g water) ([2]; pH 7)	also measured
[O-][Cl+3]([O-])([O-])O [Perchlorate]	–	Solubility (g/100 g water) [1]: 113.5 g/100 g water
O=C(O)c1ccccc1O [Salicylate]	0.29	–
Laurate	–	Solubility (g/100 g water) ([2]; zinc salt of the counterion, reference B, commercially sourced materials (Pfaltz & Bauer), water at pH 7 and room temperature, filtered, ICP): 0.012 g/100 g water
Phosphate	0.0013	–
